Counter-ions that a name gives are not always drawn.
Assay: Test Example 3: Determination of oil/water partition coefficient (n-octanol / Sorensen buffer pH 7.0, HPLC)
Assay type: physicochemical
Conditions: dihydrochloride
Description: A 10-ml portion, of a solution prepared by dissolving the dihydrochloride of Compound No. 1 in Sorensen buffer solution (pH 7.0) to a concentration of 100 μg/ml is placed in a 50-ml centrifuagl tube, followed by addition of 10 ml of n-octanol. After shaking at 25° C. for 10 minutes, the mixture is centrifuged and the concentration of the cephalosporin compound in the aqueous layer is determined by high performance liquid chromatography [column: μ-Bondapak C-18 produced by Waters Associates, Canada; eluent: 0.05 M ammonium sulfate solution+acetonitrile+acetic acid (400:200:1 v/v)]. A value of 0.45 μg/ml is obtained. From this value, the oil/water partition coefficient is calculated as follows: [formula]

For CC(OC(=O)OC1CCCCC1)OC(=O)C1=C(CSc2nnnn2CCN(C)C)CS[C@@H]2[C@H](NC(=O)Cc3csc(N)n3)C(=O)N12 (stereo partly drawn) [Compound No. 1, 1-(cyclohexyloxycarbonyloxy)ethyl 7β-[2-(2-aminothiazol-4-yl)acetamido]-3-[[[1-(2-dimethylaminoethyl-1H-tetrazol-5-yl]thio]methyl]ceph-3-em-4-carboxylatedihydrochloride], the “concentration of the cephalosporin compound in the aqueous layer” value (initial 100 μg/ml in Sorensen buffer pH 7.0, equal volume n-octanol, 25° C., 10 minutes shaking) was 450 ng/mL and the logD (n-octanol/Sorensen buffer pH 7.0, 25° C., calculated from aqueous concentration) was 2.34.
